These results are taken from ChEMBL document CHEMBL4316618, “Synthesis and pharmacological evaluation of novel arylpiperazine oxicams derivatives as potent analgesics without ulcerogenicity” (Bioorg Med Chem, 2019).

Broadly, the mortality is the percentage killed. What is called LD50 is the dose at which mortality reaches 50%. A low value points to a more toxic substance. As a reminder, the ED50 is the midpoint of the dose-response relation.

The structures appear in SMILES notation. Some results are limits rather than exact numbers.

For data set [1], the system named is Mus musculus. In words: Potency index, ratio of piroxicam ED50 to test compound ED50 for analgesic activity in ip dosed formalin-induced nociception Albino Swiss CD-1 mouse model assessed as reduction in time spent on licking formalin injected hind paw during inflammatory phase. It is filed as functional.
The nature of data set [2]: Acute toxicity in Albino Swiss CD-1 mouse assessed as mortality at 2000 mg/kg, ip measured after 72 hrs relative to control. Particulars: in vivo. It counts as organism-based.
The nature of data set [3]: Neurotoxicity in Albino Swiss CD-1 mouse assessed as motor impairment at 20 mg/kg, ip measured for 1 min at 6 to 24 rpm by rotarod test. It counts as toxicity, organism-based. Conditions: in vivo. On the technique in general: The rotarod test checks motor coordination on a turning rod.
Data set [4] deals with Mus musculus. In words: Analgesic activity in formalin-induced nociception Albino Swiss CD-1 mouse model assessed as time spent on licking formalin injected hind paw during neurogenic phase at 10 mg/kg, ip pretreated for 30 mins followed by formalin induction measured up to 5 mins (reference value: 60.23 +/- 5.12 s). It counts as functional.
Data set [5] in a line: Acute toxicity in ip dosed Albino Swiss CD-1 mouse measured for 24 hrs. It counts as organism-based. Conditions: in vivo.
For data set [6], the system named is Mus musculus. In words: Analgesic activity in formalin-induced nociception Albino Swiss CD-1 mouse model assessed as time spent on licking formalin injected hind paw during inflammatory phase at 20 mg/kg, ip pretreated for 30 mins followed by formalin induction measured after 15 to 30 mins (reference value: 138.5 +/- 8.55 s). It is filed as functional.
Data set [7] relates to Mus musculus. As to the kind of experiment: Sedative activity in ip dosed Albino Swiss CD-1 mouse assessed as effect on locomotor activity by measuring reduction in number of light beam crossings treated for 30 mins measured for next 30 mins. It is filed as organism-based. Conditions: in vivo, 0.5 h.
For data set [8], the system named is Mus musculus. In words: Analgesic activity in formalin-induced nociception Albino Swiss CD-1 mouse model assessed as time spent on licking formalin injected hind paw during inflammatory phase at 5 mg/kg, ip pretreated for 30 mins followed by formalin induction measured after 15 to 30 mins (reference value: 138.5 +/- 8.55 s). It is filed as functional.
Data set [9] relates to Mus musculus. In words: Analgesic activity in ip dosed formalin-induced nociception Albino Swiss CD-1 mouse model assessed as reduction in time spent on licking formalin injected hind paw during inflammatory phase pretreated for 30 mins followed by formalin induction measured after 15 to 30 mins. It is filed as functional. Conditions: Swiss CD-1, ip.
The subject of data set [10] is Mus musculus. In words: Analgesic activity in formalin-induced nociception Albino Swiss CD-1 mouse model assessed as time spent on licking formalin injected hind paw during inflammatory phase at 10 mg/kg, ip pretreated for 30 mins followed by formalin induction measured after 15 to 30 mins (reference value: 138.5 +/- 8.55 s). It is filed as functional.
Data set [11] deals with Mus musculus. As to the kind of experiment: Analgesic activity in formalin-induced nociception Albino Swiss CD-1 mouse model assessed as time spent on licking formalin injected hind paw during neurogenic phase at 5 mg/kg, ip pretreated for 30 mins followed by formalin induction measured up to 5 mins (reference value: 60.23 +/- 5.12 s). It counts as functional.
The test system of data set [12] is Mus musculus. In words: Analgesic activity in formalin-induced nociception Albino Swiss CD-1 mouse model assessed as time spent on licking formalin injected hind paw during neurogenic phase at 20 mg/kg, ip pretreated for 30 mins followed by formalin induction measured up to 5 mins (reference value: 60.23 +/- 5.12 s). It is filed as functional.
Data set [13] concerns Mus musculus. As to the kind of experiment: Analgesic activity in formalin-induced nociception Albino Swiss CD-1 mouse model assessed as time spent on licking formalin injected hind paw during neurogenic phase at 30 mg/kg, ip pretreated for 30 mins followed by formalin induction measured up to 5 mins (reference value: 60.23 +/- 5.12 s). It is filed as functional.
Data set [14] in a line: Ulcerogenic activity in Wistar (Krf:(WI) WU) rat assessed as change in gastric mucosa at 25 mg/kg measured after 24 hrs by stereo microscopic analysis. It is filed as toxicity, organism-based. Particulars: in vivo.
Data set [15] has as its system Mus musculus. In words: Analgesic activity in formalin-induced nociception Albino Swiss CD-1 mouse model assessed as time spent on licking formalin injected hind paw during inflammatory phase at 30 mg/kg, ip pretreated for 30 mins followed by formalin induction measured after 15 to 30 mins (reference value: 138.5 +/- 8.55 s). It is filed as functional.
Data set [16] is described as follows: Acute toxicity in Albino Swiss CD-1 mouse assessed as mortality at 500 mg/kg, ip measured after 72 hrs relative to control. It counts as organism-based. Conditions: in vivo.
The nature of data set [17]: Acute toxicity in Albino Swiss CD-1 mouse assessed as mortality at 1000 mg/kg, ip measured after 72 hrs relative to control. It is filed as organism-based. Conditions: in vivo.
In data set [18] the test system is Mus musculus. In words: Analgesic activity in ip dosed formalin-induced nociception Albino Swiss CD-1 mouse model assessed as reduction in time spent on licking formalin injected hind paw during neurogenic phase pretreated for 30 mins followed by formalin induction measured up to 5 mins. Particulars: Swiss CD-1, ip. It counts as functional.
Data set [19] is described as follows: Acute toxicity in Albino Swiss CD-1 mouse assessed as mortality at 250 mg/kg, ip measured after 72 hrs relative to control. It is filed as organism-based. Particulars: in vivo.

Take `COc1ccccc1N1CCN(CCCN2C(C(=O)c3ccccc3)=C(O)c3ccccc3S2(=O)=O)CC1`: in data set [1], the “Ratio ED50” value is 2 - 5. In addition, the mortality at 72 h in [2] was 0%. In data set [3], the Activity entry is listed as “Non-Toxic”. Besides, the Time in [4] came to 55.71 s; in data set [6], 35.86 s; in [8], 92.17 s; in data set [10], 68.17 s; in data set [11] it was 55.83 s; in data set [12] it was 51.4 s. In [5], this compound registered a median lethal dose (LD50) at 24 h of more than 2000 mg/kg. Also, the results for the 50% effective dose (ED50) in data set [7] and in data set [9] were 33.18 mg/kg and 9.03 mg/kg, respectively.
Consider `Cc1ccc(C(=O)C2=C(O)c3ccccc3S(=O)(=O)N2CCCN2CCN(c3ccccc3)CC2)cc1`, for which, in data set [1], the “Ratio ED50” value was 2 - 5. Also, the mortality at 72 h in data set [2] came out at 0%. The Activity entry in data set [3] is given as “Non-Toxic”. Also, the Time came to 51.17 s in [4]; 35.33 s in data set [6]; 62.57 s in [8]; 55.86 s in data set [10]; 59 s in [11]; 47.67 s in data set [12]. Further, the 50% lethal dose (LD50) at 24 h in [5] was more than 2000 mg/kg. Moreover, the ED50 in data set [7] was found to be 35.42 mg/kg; in data set [9], 4.01 mg/kg.
For the compound `CN1C(C(=O)Nc2ccccn2)=C(O)c2ccccc2S1(=O)=O` [PIROXICAM], the Time is listed as 58.71 s in data set [4]; 49.75 s in data set [13]; 67.43 s in data set [6]; 116.1 s in data set [8]; 108.25 s in data set [10]; 61.31 s in [11]. Besides, the figures for the Time in data set [15] and in data set [12] were 37.57 s and 59.16 s, respectively. The median lethal dose (LD50) at 24 h in data set [5] came out at 360 mg/kg. In addition, the ED50 in [9] came to 18.9 mg/kg. The Activity result in data set [14] is “Toxic”.
Take `O=C(C1=C(O)c2ccccc2S(=O)(=O)N1CC(=O)N1CCN(c2ccccc2)CC1)c1ccccc1`: the “Ratio ED50” value in data set [1] is given as 2 - 5. Also, the mortality at 72 h was determined as 50% in [16], 83.3% in data set [17] and 16.7% in data set [19]. Besides, the ED50 in data set [18] came out at 13.9 mg/kg; in data set [7] it was 31.55 mg/kg; in data set [9], 8.85 mg/kg. In addition, the Activity entry in [3] is reported as “Non-Toxic”. Also, the Time in data set [4] is 34.29 s; in [6] it was 49.71 s; in data set [8], 81.13 s; in [10], 68.86 s; in data set [11] it was 41.17 s; in data set [12] it was 25.83 s. Also, in data set [5], the 50% lethal dose (LD50) at 24 h was found to be 500 mg/kg.
On to `O=C(C1=C(O)c2ccccc2S(=O)(=O)N1CC(=O)N1CCN(c2ccccc2)CC1)c1ccc(F)cc1`, for which the “Ratio ED50” value in data set [1] was 2 - 5. In addition, the mortality at 72 h in data set [2] is 100%; in [16], 0%; in data set [17] it was 66.7%. Besides, the ED50 in data set [18] is 12.8 mg/kg; in data set [7], 26.15 mg/kg; in data set [9], 6.24 mg/kg. Also, the Activity result in [3] and in data set [14] was “Non-Toxic” throughout. Besides, the Time is listed as 32 s in data set [4]; 30.67 s in [6]; 75.78 s in data set [8]; 55.29 s in data set [10]; 44.8 s in [11]; 24.25 s in [12]. The same compound came in with a 50% lethal dose (LD50) at 24 h in data set [5] of 957 mg/kg.
For `O=C(C1=C(O)c2ccccc2S(=O)(=O)N1CC(=O)N1CCN(c2ncccn2)CC1)c1ccc(Br)cc1`, in data set [1], the “Ratio ED50” value is listed as 2 - 5. The mortality at 72 h in data set [2] came out at 0%. The median effective dose (ED50) in [18] came out at 11.9 mg/kg; in [7], 29.89 mg/kg; in [9], 8.25 mg/kg. In addition, the Activity result in data set [3] and in data set [14] was “Non-Toxic” each time. Further, the Time came out at 31.38 s in data set [4]; 48.6 s in data set [6]; 81.63 s in data set [8]; 63.75 s in data set [10]; 44.5 s in [11]; 22.44 s in data set [12]. This compound yielded an LD50 at 24 h in data set [5] of more than 2000 mg/kg.
As for `COc1ccccc1N1CCN(C(=O)CN2C(C(=O)c3ccccc3)=C(O)c3ccccc3S2(=O)=O)CC1`, the “Ratio ED50” value in data set [1] is reported as 2 - 5. In data set [2], the mortality at 72 h came to 0%. Further, the Activity entry in [3] is “Non-Toxic”. For the same compound, the Time in data set [4] came to 45.63 s; in data set [6] it was 55.71 s; in data set [8] it was 77.29 s; in data set [10], 63.13 s; in data set [11], 50.71 s; in [12], 38.29 s. In [5], this compound showed a 50% lethal dose (LD50) at 24 h of more than 2000 mg/kg. In addition, the values for the ED50 in data set [7] and in data set [9] were 32.1 mg/kg and 7.93 mg/kg, respectively.
In the case of `O=C(C1=C(O)c2ccccc2S(=O)(=O)N1CCCN1CCN(c2cccc(C(F)(F)F)c2)CC1)c1ccccc1`, in data set [1], the “Ratio ED50” value is recorded as 2 - 5. Besides, the mortality at 72 h in data set [2] was determined as 0%. Besides, the median effective dose (ED50) in data set [18] stood at 27 mg/kg; in data set [7], 38.41 mg/kg; in data set [9], 7.14 mg/kg. Further, in data set [3], the Activity result is listed as “Non-Toxic”. For the same compound, the Time in data set [4] was 42.86 s; in data set [6], 48.6 s; in [8], 78.5 s; in data set [10], 59.17 s; in data set [11], 51.5 s; in data set [12], 35.11 s. The compound further registered an LD50 at 24 h in [5] of more than 2000 mg/kg.
For the compound `O=C(C1=C(O)c2ccccc2S(=O)(=O)N1CCCN1CCN(c2ccccc2)CC1)c1ccccc1`, the “Ratio ED50” value in data set [1] is on record as 2 - 5. In addition, the mortality at 72 h in data set [2] was 0%. The results for the 50% effective dose (ED50) in data set [18], in data set [7] and in data set [9] were 11.6 mg/kg, 34.12 mg/kg and 6.18 mg/kg, respectively. Further, the Activity entry in [3] was “Non-Toxic”. Further, the Time in data set [4] is 28.25 s; in [6], 44.14 s; in data set [8], 71.6 s; in data set [10], 63 s; in data set [11], 40 s; in data set [12] it was 26.29 s. Moreover, the 50% lethal dose (LD50) at 24 h in [5] was more than 2000 mg/kg.
With `Cc1ccc(C(=O)C2=C(O)c3ccccc3S(=O)(=O)N2CC(=O)N2CCN(c3ccccc3)CC2)cc1`, in data set [1], the “Ratio ED50” value is 2 - 5. Besides, the mortality at 72 h in [16] turned out to be 66.7%; in data set [17], 83.3%; in [19] it was 0%. Besides, the ED50 amounted to 22.8 mg/kg in data set [18], 40.34 mg/kg in data set [7] and 7.22 mg/kg in [9]. Besides, the Activity result in data set [3] and in data set [14] was “Non-Toxic” throughout. For the same compound, the Time in data set [4] is recorded as 39.75 s; in data set [6] it was 28.86 s; in data set [8], 90 s; in data set [10], 46.86 s; in [11], 44.86 s; in [12], 31 s. The median lethal dose (LD50) at 24 h in data set [5] is 569 mg/kg.
